Experiments:
[1] = tested on: MC 903-induced atopic dermatitis (AD)-like inflammation; experiment: Calcipotriol (MC 903)-induced atopic dermatitis-like inflammation of mouse ears; type: in vivo, Balb/C mouse; settings: for MC 903-induced ear skin inflammation, histological analysis: H&E, vs control; for expression of the TSLP lymphokine in MC 903-treated mouse epidermis (immunohistochemistry): data not shown; for MC 903-induced transcription of pro-inflammatory genes (MMP13, COX2, IL-1β, IL-6, IL-10, IL-13 and TSLP): ear extracts, q-RT-PCR, D23; for MC 903-induced skin inflammation: topical 1 nmole/cm^2, 8 days co-treatment with MC 903
Description: To investigate the CpdX anti-inflammatory activity in vivo, Balb/C mouse ears were topically treated with calcipotriol (MC 903, a vitamin D3 analogue), in order to induce an atopic dermatitis (AD)-like inflammation (Li et al., 2006. Proc Natl Acad Sci USA. 103(31):11736-41).
Mice were treated for 14 days with MC 903, and then for 8 extra days (until D22) with either MC 903 alone (control), MC 903 and Dex, MC 903 and CpdX, MC 903 and CpdX(eA), MC 903 and CpdX(eB), MC 903 and CpdX-D3, MC 903 and CpdX-D3(eA) and MC 903 and CpdX-D3(eB).
At D23, RNA transcripts were extracted from mouse ear skin samples and the transcripts of 7 cytokines (MMP13, COX2, IL-1β, IL-6, IL-10, IL-13 and TSLP) were analyzed by q-RT-PCR. Ear skin was harvested and histological (with H&E staining) and immunohistochemical (with anti-TSLP antibodies) analyses were carried out.

[2] = Blood glucose and intraperitoneal glucose tolerance test (IPGTT) after three-month treatment; type: in vivo, B6 male mice; settings: three months; glucose i.p. injection
Description: B6 male mice (8-week-old) were daily subjected for three months to a subcutaneous injection of either vehicle (NaCl 0.9%), Dex, CpdX, CpdX(eA), CpdX(eB), CpdX-D3, CpdX-D3(eA) or CpdX-D3(eB) (1 mg/kg body weight, diluted in vehicle). Mice were over-night-fasted. Mouse blood glucose concentration was measured before (To) and during two hours (T120) after glucose i.p. injection ([…]).

adrenal glands = experiment: Corticosterone synthesis and adrenal gland after three-month treatment; type: in vivo, B6 male mice; settings: three months; for cortex layers, most notably the fasciculata zone, of the adrenal glands (histology) / transcripts of Cyp11a, Cyp11b1 and HSD3β genes in adrenal glands (corticosterone synthesis pathway): s.c. 1 mg/kg daily; for transcripts of Cyp11a, Cyp11b1 and HSD3β genes in adrenal glands (corticosterone synthesis pathway): q-RT-PCR; for plasmatic corticosterone level at 10 a.m.: vs Vehicle
Description: B6 male mice (8-week-old) were daily subjected for three months to either a subcutaneous injection of vehicle (NaCl 0.9%), Dex, CpdX, CpdX(eA), CpdX(eB), CpdX-D3, CpdX-D3(eA) or CpdX-D3(eB) (1 mg/kg body weight, diluted in vehicle).
Following this long-term treatment, blood was collected at 10 a.m. and 6 p.m. by retro-orbital puncture in lithium-heparin coated vials, and the plasmatic level of corticosterone was determined. Adrenal glands were harvested and weighted. RNA transcripts were extracted and transcripts of the Cyp11a, Cyp11b1, Cyp11b2 and HSD3β genes were analyzed by q-RT-PCR. Histological analyses of the adrenal glands were also carried out.

[3] = Body weight and body composition after three-month treatment (pDEXA); type: in vivo, B6 male mice; settings: s.c. 1 mg/kg daily, 3 months, pDEXA
Description: B6 male mice (8-week-old) were daily subjected for three months to a subcutaneous injection of either vehicle (NaCl 0.9%), Dex, CpdX or CpdX-D3 (1 mg/kg body weight, diluted in vehicle. A pDEXA machine was used to determine the lean mass and fat mass. The statistical significance was calculated through Krustal-Walis test followed by a Dunn's multiple comparison test, *p<0.05; **p<0.01; ***p<0.001.

[4] = tested on: dorsal skin of Balb/C mice; experiment: Skin epidermis atrophy after 8-day topical treatment of dorsal skin; type: in vivo; settings: eight-day topical treatment
Text: To investigate whether, similarly to Dex, a topical administration of CpdX could result in a skin atrophy, Balb/C mice were shaved on the dorsal skin. Ethanol (vehicle), Dex, CpdX or either one of its two enantiomers CpdX(eA) or CpdX(eB), as well as the deuterated form CpdX-D3 or either one of its two enantiomers CpdX-D3(eA) or CpdX-D3(eB), were topically applied onto the dorsal skin for 8 days.
Upon completion of the treatments, RNA transcripts were extracted from dorsal skin samples and the transcripts of Kindlin-1 and REDD1 genes were analyzed by q-RT-PCR. Histological and morphometric analyses of the dorsal skin were also performed.

[5] = tested on: TPA-induced irritant contact dermatitis-like inflammation; experiment: TPA-induced irritant contact dermatitis-like inflammation of mouse ears; type: in vivo, Balb/C mouse; settings: for TPA-induced ear skin inflammation, histological analysis: H&E, vs control; for TPA-induced ear skin inflammation, histological analysis / expression of TSLP in TPA-treated mouse epidermis (immunochemistry): data not shown; for expression of TSLP in TPA-treated mouse epidermis (immunochemistry): TSLP-specific antibody; for TPA-induced transcription of pro-inflammatory genes (CCL4, COX2, MMP13, IL-1β, IL-6, TNF-α, TSLP, IL-22, IL-23): ear extracts, q-RT-PCR, D10; for TPA-induced skin inflammation: topical 1 nmole/cm^2, 5 days co-treatment with TPA
Description: Balb/C mouse ears were topically treated with TPA to induce an “irritant contact dermatitis-like inflammation”. Mice were treated for 4 days with TPA, then for 5 extra days (until D9) with either vehicle, TPA alone, TPA and Dex, TPA and CpdX or TPA and CpdX-D3. At D10, RNA transcripts were extracted from mouse ear skin samples and the transcripts of CCL4, COX2, MMP13, IL-1β, IL-6, TNF-α, TSLP, IL-22 and IL-23 were analyzed by q-RT-PCR. Ear skin was harvested, and histological (with H&E staining) and immunohistochemical (with anti-TSLP antibodies) analyses were carried out.

[6] = tested on: Aldara-induced psoriasis-like skin inflammation; experiment: Aldara-induced psoriasis-like skin inflammation of mouse ears; type: in vivo, Balb/C mouse; settings: for Aldara-induced psoriasis-like skin inflammation, histological analyses: H&E staining; for induced expression of the Th17 cytokines IL-17a, IL-17c, IL-17f and IL-22: ear extracts, q-RT-PCR, D10; for Aldara-induced psoriasis-like skin inflammation: topical 1 nmole/cm^2, last 5 days of 9 days Aldara
Description: Balb/C mouse ears were topically treated with Aldara® to induce a psoriasis-like skin inflammation ([…] et al., 2015. Br J Dermatol. 172(2):345-53). Mice were treated for 9 days with Aldara®, including a co-topical treatment for the last 5 days with either ethanol (Vehicle), Dex, CpdX or CpdX-D3. At D10, RNA transcripts were extracted from mouse ears and IL-17a, IL-17c, IL-17f and IL-22 transcripts were analyzed by q-RT-PCR. Ear skin samples were also harvested for histological analyses (with H&E staining).

liver = experiment: Fatty liver after three-month treatment (red oil staining, q-RT-PCR, plasma cholesterol and bile acids); type: in vivo, B6 male mice; settings: s.c. 1 mg/kg daily, three months
Description: B6 male mice (8-week-old) were daily subjected for three months to a subcutaneous injection of either vehicle (NaCl 0.9%), Dex, CpdX, CpdX(eA), CpdX(eB), CpdX-D3, CpdX-D3(eA) or CpdX-D3(eB) (1 mg/kg body weight, diluted in vehicle). Following this treatment, blood was collected at 10 a.m. by retro-orbital puncture in lithium-heparin coated vials. The plasmatic levels of total cholesterol and bile acids were determined.
Liver samples were harvested. […] RNA transcripts were extracted from liver samples and the transcripts of fatty acid synthase (FASN) and Stearoyl-CoA desaturase 1 (SCD1) genes were analyzed by q-RT-PCR.

cortex layers, most notably the fasciculata zone, of the adrenal glands (histology) (adrenal glands) | transcripts of Cyp11a, Cyp11b1 and HSD3β genes in adrenal glands (corticosterone synthesis pathway) (adrenal glands) | plasmatic corticosterone level at 10 a.m. (adrenal glands) | epidermal thickness (morphometric analyses) [4] | lipid deposition in the liver (5% red oil staining) (liver) | Structure (SMILES) | MC 903-induced ear skin inflammation, histological analysis [1] | expression of the TSLP lymphokine in MC 903-treated mouse epidermis (immunohistochemistry) [1] | MC 903-induced transcription of pro-inflammatory genes (MMP13, COX2, IL-1β, IL-6, IL-10, IL-13 and TSLP) [1] | MC 903-induced skin inflammation [1] | blood glucose level during two-hour IPGTT [2] | fat mass / fat percentage, change from baseline [3] | lean mass / lean percentage, change from baseline [3] | TPA-induced ear skin inflammation, histological analysis [5] | expression of TSLP in TPA-treated mouse epidermis (immunochemistry) [5] | TPA-induced transcription of pro-inflammatory genes (CCL4, COX2, MMP13, IL-1β, IL-6, TNF-α, TSLP, IL-22, IL-23) [5] | TPA-induced skin inflammation [5] | Aldara-induced psoriasis-like skin inflammation, histological analyses [6] | induced expression of the Th17 cytokines IL-17a, IL-17c, IL-17f and IL-22 [6] | Aldara-induced psoriasis-like skin inflammation [6]
markedly increased | increased | much higher | not significantly decreased | not observed | COc1ccc(F)cc1C(C)(C)CC(O)(CNc1ccc2c(c1)COC2=O)C(F)(F)F (racemic) [CpdX, 5-[4-(5-fluoro-2-methoxyphenyl)-2-hydroxy-4-methyl-2-(trifluoromethyl)pentylamino]-isobenzofuran-1(3H)-one] | decreased | similarly strongly decreased | repressed, as efficiently as Dex | significantly decreased | no significant difference | commensurate increase | commensurate increase | significantly decreased | similarly strongly decreased | repressed, as efficiently as Dex | significantly decreased | could reduce | similarly reduced | significantly decreased
markedly increased | increased | much higher | not significantly decreased | not observed | [2H]C([2H])([2H])Oc1ccc(F)cc1C(C)(C)CC(O)(CNc1ccc2c(c1)COC2=O)C(F)(F)F (racemic) [CpdX-D3, 5-{4-[2-(methoxy-D3)-5-fluorophenyl]-2-hydroxy-4-methyl-2-(trifluoromethyl)pentylamino}isobenzofuran-1(3H)-one] | decreased | similarly strongly decreased | repressed, as efficiently as Dex | significantly decreased | no significant difference | commensurate increase | commensurate increase | significantly decreased | similarly strongly decreased | repressed, as efficiently as Dex | significantly decreased | could reduce | similarly reduced | significantly decreased
markedly increased | increased | much higher | not significantly decreased |  | COc1ccc(F)cc1C(C)(C)CC(O)(CNc1ccc2c(c1)COC2=O)C(F)(F)F (single isomer, unassigned; enantiomer a) [CpdX(eA), 5-[4-(5-fluoro-2-methoxyphenyl)-2-hydroxy-4-methyl-2-(trifluoromethyl)-pentylamino]isobenzofuran-1(3H)-one enantiomer A] |  |  |  |  | no significant difference |  |  |  |  |  |  |  |  | 
markedly increased | increased | much higher | not significantly decreased |  | [2H]C([2H])([2H])Oc1ccc(F)cc1C(C)(C)CC(O)(CNc1ccc2c(c1)COC2=O)C(F)(F)F (single isomer, unassigned; enantiomer a) [CpdX-D3(eA), 5-{4-[2-(methoxy-D3)-5-fluorophenyl]-2-hydroxy-4-methyl-2-(trifluoromethyl)pentylamino}isobenzofuran-1(3H)-one enantiomer A] |  |  |  |  | no significant difference |  |  |  |  |  |  |  |  | 

— patent US11179363B2, “Non-steroidal selective glucocorticoid receptor agonistic modulators (SEGRAMs) and uses thereof” (ASSOCIATION POUR LA RECHERCHE À L'IGBMC (ARI), priority 2017, dated 2021)
